Data: patent US11517508B2, “Composition for single-paste type hydraulic endodontic filling material comprising dimethyl sulfoxide” (MARUCHI, priority 2016, dated 2022)

Test system: MC3T3-E1 cells
Experiment: Cytotoxicity test (MTT) of solvents, material extracts on MC3T3-E1 cells
Type: cell-based
Conditions: p<0.05, FIG. 1
Description: FIG. 1 is a graph of a cytotoxicity test according to one embodiment of the invention. The test will be described with reference to FIG. 1.
A: NMP, B: DMSO, C: DEGEE, and D: DMSO 80%+DEGEE 20%
Cytotoxicity was measured with respect to the above four kinds of solvents by the following method:
(i) A specimen was placed in a mold with a thickness of 2 mm and a diameter of 10 mm, and hardened in an incubator at 37° C. for 3 days. (ii) A material extract was derived by filling the hardened specimen with a medium at a surface area/medium ratio of 0.5 cm^2 per ml and incubating it at 37° C. for 3 days. (iii) 1.5×10^4 MC3T3-E1 cells were seeded per well on a 24-well culture plate and incubated for 24 hours, and then the medium was sucked off. 1 ml of the material extract was placed in each well and set in triplicate. (iv) The material extracts were incubated for 24 hours, 48 hours and 72 hours, respectively, and then the medium was discarded. The material extracts were treated with 200 μl of 0.05% MTT solution, wrapped in aluminum foil, and reacted in the incubator at 37° C. for 2 hours. (v) 200 μl of DMSO was added after the reaction. Then, 200 μl of the reaction solution was transferred to each well in a 96-well plate and absorbance was measured at 590 nm.

[1] = all tests and all times (24, 48, 72 hours), compared with NMP groups

With CCOCCOCCO [DEGEE, diethylene glycol monoethyl ether, reference compound] the cell survival rate [1] was “higher cell survival rate than groups for which NMP was used as a solvent”.
C[S+](C)[O-] [DMSO, dimethyl sulfoxide] was tested, and the cell survival rate (48 hours and 72 hours, comparison between solvent groups) was “significantly higher cell survival rate than groups for which DEGEE and a mixture of DMSO and DEGEE were used as solvents” and the cell survival rate [1] was “higher cell survival rate than groups for which NMP was used as a solvent”.
